Earlier results on one compound are cited in patent US20070077296A1, “Pharmaceutical Preparation containing Meloxicam” (priority 2005, published 2007).

Molecules are shown by their SMILES.

Take `Cc1cnc(NC(=O)C2=C(O)c3ccccc3S(=O)(=O)N2C)s1` [meloxicam, 4-hydroxy-2-methyl-N-(5-methyl-2-thiazolyl)-2H-1,2-benzothiazine-3-carboxamide-1,1-dioxide]: the solubility in water entry was “hardly dissolve in water”.
